Laboratory results published in article PMC5891627, “Binding Specificity of Two PBPs in the Yellow Peach Moth Conogethes punctiferalis (Guenée)” (Frontiers in Physiology, 2018).

Tests used:
[1] = biological target: CpunPBP2 (Conogethes punctiferalis, UniProt A0A1D6X8W8); assay: Fluorescence displacement (competitive, 1-NPN) binding assay; conditions: for IC50 / Kd / activity at 6000 µM: pH = 7.4; for IC50: 1-NPN 2 μM as fluorescent reporter, 2 μM protein, read-out: IC50; for Kd: calculated from IC50: KD = [IC50]/(1+[1-NPN]/K1-NPN), read-out: KD (μM), calculated dissociation constant; for binding affinity to CpunPBP2 (in words): ranking among the 24 tested ligands; for activity at 6000 µM: ratio of fluorescence intensity at the pheromone concentration of 6 mM to the initial fluorescence intensity, read-out: Int (%)
Procedure: (§1) The fluorescence intensity was recorded on a FluoroMax-4 spectrophotometer (Horiba Scientific, USA) at room temperature using a 1 cm light path fluorimeter quartz cuvette. The fluorescent probe N-phenyl-1-naphthylamine (1-NPN) and all the tested chemicals were dissolved in HPLC purity methanol. The final concentration was prepared 1 mM. […] The fluorescence of 1-NPN was excited at 337 nm and emission spectra were recorded between […]. […] The GraphPad Prism 5 (GraphPad Software, Inc.) was used to estimate the K1−NPN (KD of complex protein /1-NPN) values by nonlinear regression for a unique site of binding. It was assumed that the proteins were 100% active, with a stoichiometry of 1:1 (protein:ligand) at saturation. […] In the equation, [1-NPN] is the free concentration of 1-NPN, and K1−NPN is the dissociation constant of the complex protein /1-NPN.

[2] = biological target: CpunPBP5 (Conogethes punctiferalis, UniProt A0A0M4FIS7); assay: as above; conditions: for IC50 / Kd / activity at 6000 µM: pH = 7.4; for IC50: 1-NPN 2 μM as fluorescent reporter, 2 μM protein, read-out: IC50; for Kd: calculated from IC50: KD = [IC50]/(1+[1-NPN]/K1-NPN), read-out: KD (μM), calculated dissociation constant; for binding affinity to CpunPBP5 (in words): ranking among the 24 tested ligands; for activity at 6000 µM: ratio of fluorescence intensity at the pheromone concentration of 6 mM to the initial fluorescence intensity, read-out: Int (%)
Procedure: as §1

[3] = biological target: CpunPBP2-m1 (CpunPBP2-Phe9 mutant) (Conogethes punctiferalis, UniProt A0A1D6X8W8, F33Y); assay: Fluorescence displacement binding assay of mutants; conditions: for Kd: read-out: KD, calculated dissociation constant
Procedure: (§2) The fluorescence intensity was recorded on a FluoroMax-4 spectrophotometer (Horiba Scientific, USA) at room temperature using a 1 cm light path fluorimeter quartz cuvette. The fluorescent probe N-phenyl-1-naphthylamine (1-NPN) and all the tested chemicals were dissolved in HPLC purity methanol. The final concentration was prepared 1 mM. To measure the affinity of florescent ligand 1-NPN to each protein, a 2 μM solution of the protein in 50 mM Tris-HCl, pH 7.4, was titrated with aliquots of 1 mM ligand in methanol to final concentrations of 1–8 μM. The fluorescence of 1-NPN was excited at 337 nm and emission spectra were recorded between […] and 450 nm. The affinity of other ligands was measured in competitive binding assays, using 1-NPN as the fluorescent reporter at 2 μM concentration and different concentrations of each ligands. The GraphPad Prism 5 (GraphPad Software, Inc.) was used to estimate the K1−NPN (KD of complex protein /1-NPN) values by nonlinear regression for a unique site of binding. It was assumed that the proteins were 100% active, with a stoichiometry of 1:1 (protein:ligand) at saturation. For other competitor ligands, the dissociation constants were calculated from the corresponding IC50 (concentrations of ligands halving the initial fluorescence value of 1-NPN) values using Microsoft Office Excel 2010, with the formula: KD = [IC50]/(1+[1-NPN]/K1−NPN). In the equation, [1-NPN] is the free concentration of 1-NPN, and K1−NPN is the dissociation constant of the complex protein /1-NPN.
(§3) Four mutants of CpunPBP2 and four mutants of CpunPBP5 were developed using the QuikChange Lightning Site-Directed Mutagenesis Kit (Stratagene, USA). The mutational primers were designed manually. Mutation sites are underlined in Table S2. The CpunPBP2/pGEM-T Easy construct was used as a template. The PCR conditions were 95°C for 5 min, followed by 30 cycles of 95°C for 30 s, 58°C for 30 s and 68°C for 1 min, and final extension at 72°C for 10 min. The correct insertion of mutation was subcloned into pGEM-T Easy vector (TransGen, Beijing, China). The expression system and fluorescence binding assay were conducted as mentioned for wild type proteins.
(§4) Supplementary file Image3.jpg: Figure S3 SDS-PAGE analyses of purified CpunPBP2 and CpunPBP5 with their mutants. M: marker protein. (A)1:CpunPBP2 original protein. (A)2: CpunPBP2-Phe9 mutant (CpunPBP2-m1). (A)3: CpunPBP2-Phe33 mutant (CpunPBP2-m2). (A)4: CpunPBP2-Ser53 mutant (CpunPBP2-m3). (A)5: CpunPBP2-Phe115 mutant (CpunPBP2-m4). (B)1:CpunPBP5 original protein. (B)2: CpunPBP5-Ser9 mutant (CpunPBP5-m1). (B)3: CpunPBP5-Phe12 mutant (CpunPBP5-m2). (B)4: CpunPBP5-Val115 mutant (CpunPBP5-m3). (B)5: CpunPBP5-Arg120 mutant (CpunPBP5-m4). Click here for additional data file.

[4] = biological target: CpunPBP2-m2 (CpunPBP2-Phe33 mutant) (Conogethes punctiferalis, UniProt A0A1D6X8W8, F57Y); assay: Fluorescence displacement binding assay of mutants; conditions: for Kd: read-out: KD, calculated dissociation constant
Procedure: as §2, §3, §4

[5] = biological target: CpunPBP2-m3 (CpunPBP2-Ser53 mutant) (Conogethes punctiferalis, UniProt A0A1D6X8W8, S77Y); assay: Fluorescence displacement binding assay of mutants; conditions: for Kd: read-out: KD, calculated dissociation constant
Procedure: as §2, §3, §4

[6] = biological target: CpunPBP2-m4 (CpunPBP2-Phe115 mutant) (Conogethes punctiferalis, UniProt A0A1D6X8W8, F139Y); assay: Fluorescence displacement binding assay of mutants; conditions: for Kd: read-out: KD, calculated dissociation constant
Procedure: as §2, §3, §4

[7] = biological target: CpunPBP5-m1 (CpunPBP5-Ser9 mutant) (Conogethes punctiferalis, UniProt A0A0M4FIS7, S34T); assay: Fluorescence displacement binding assay of mutants
Procedure: as §2, §3, §4

[8] = biological target: CpunPBP5-m2 (CpunPBP5-Phe12 mutant) (Conogethes punctiferalis, UniProt A0A0M4FIS7, F37Y); assay: Fluorescence displacement binding assay of mutants
Procedure: as §2, §3, §4

[9] = biological target: CpunPBP5-m3 (CpunPBP5-Val115 mutant) (Conogethes punctiferalis, UniProt A0A0M4FIS7, V140A); assay: Fluorescence displacement binding assay of mutants
Procedure: as §2, §3, §4

[10] = biological target: CpunPBP5-m4 (CpunPBP5-Arg120 mutant) (Conogethes punctiferalis, UniProt A0A0M4FIS7, R145K); assay: Fluorescence displacement binding assay of mutants
Procedure: as §2, §3, §4

[11] = test system: yellow peach moth males; design: method as in Liu et al., [1994]; conditions: ref Liu et al., [1994]; cited from earlier work

Chain of CpunPBP2-m1 (CpunPBP2-Phe9 mutant) (A0A1D6X8W8 entry or part of it F33Y): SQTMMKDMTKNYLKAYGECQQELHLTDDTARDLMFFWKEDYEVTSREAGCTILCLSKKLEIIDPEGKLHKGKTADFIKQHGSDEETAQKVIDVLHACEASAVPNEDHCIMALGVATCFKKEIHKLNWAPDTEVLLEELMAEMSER
Chain of CpunPBP5-m4 (CpunPBP5-Arg120 mutant) (A0A0M4FIS7 entry or part of it R145K): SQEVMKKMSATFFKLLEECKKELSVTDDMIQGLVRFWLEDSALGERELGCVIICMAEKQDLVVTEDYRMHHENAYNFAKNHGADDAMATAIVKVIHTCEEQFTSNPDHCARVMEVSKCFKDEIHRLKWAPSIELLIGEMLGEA
Chain of CpunPBP5 (A0A0M4FIS7 entry or part of it): as the sequence (A0A0M4FIS7 entry or part of it R145K) above, with K120R counted along it
Chain of CpunPBP5-m1 (CpunPBP5-Ser9 mutant) (A0A0M4FIS7 entry or part of it S34T): as the sequence (A0A0M4FIS7 entry or part of it R145K) above, with S9T, K120R counted along it
Chain of CpunPBP2 (A0A1D6X8W8 entry or part of it): as the sequence (A0A1D6X8W8 entry or part of it F33Y) above, with Y12F counted along it
Chain of CpunPBP2-m3 (CpunPBP2-Ser53 mutant) (A0A1D6X8W8 entry or part of it S77Y): as the sequence (A0A1D6X8W8 entry or part of it F33Y) above, with Y12F, S56Y counted along it
Chain of CpunPBP5-m2 (CpunPBP5-Phe12 mutant) (A0A0M4FIS7 entry or part of it F37Y): as the sequence (A0A0M4FIS7 entry or part of it R145K) above, with F12Y, K120R counted along it
Chain of CpunPBP2-m4 (CpunPBP2-Phe115 mutant) (A0A1D6X8W8 entry or part of it F139Y): as the sequence (A0A1D6X8W8 entry or part of it F33Y) above, with Y12F, F118Y counted along it
Chain of CpunPBP5-m3 (CpunPBP5-Val115 mutant) (A0A0M4FIS7 entry or part of it V140A): as the sequence (A0A0M4FIS7 entry or part of it R145K) above, with V115A, K120R counted along it
Chain of CpunPBP2-m2 (CpunPBP2-Phe33 mutant) (A0A1D6X8W8 entry or part of it F57Y): as the sequence (A0A1D6X8W8 entry or part of it F33Y) above, with Y12F, F36Y counted along it

Compound | IC50 [1] [nM] | Kd [1] [µM] | binding affinity to CpunPBP2 (in words) [1] | activity at 6000 µM [1] [%] | IC50 [2] [nM] | Kd [2] [µM] | binding affinity to CpunPBP5 (in words) [2] | activity at 6000 µM [2] [%] | IC50 [3] [nM] | Kd [3] [nM] | IC50 [4] [nM] | Kd [4] [nM] | IC50 [5] [nM] | Kd [5] [nM] | IC50 [6] [nM] | Kd [6] [nM] | IC50 [7] [nM] | Kd [7] [nM] | IC50 [8] [nM] | Kd [8] [nM] | further results
CCCCC/C=C/CCCCCCCCC=O [E10-16:Ald, (E)-10-hexadecenal] | 940 ± 30 | 0.4 ± 0.01 | highest binding ability | 39.5 ± 0.83 | 1330 ± 60 | 0.6 ± 0.02 | highest binding ability | 40 ± 1.53 | 800 ± 20 | 220 ± 10 | 1180 ± 200 | 540 ± 90 | 1040 ± 130 | 110 ± 10 | 30000 ± 17600 | 19900 ± 11700 | 1630 ± 10 | 720 | 2730 ± 330 | 1490 ± 180 | IC50 [9]: 3640 ± 100 nM; Kd [9]: 1850 ± 160 nM; binding affinity of mutant compared with CpunPBP5 (in words) ([9]; mutant CpunPBP5-m3 vs wild type): decreased the most; IC50 [10]: 2610 ± 780 nM; Kd [10]: 1060 ± 320 nM
CCCCCCCCCCCCCCCC=O [Hexadecanal] | 1840 ± 20 | 1.07 ± 0.01 | – | 34.03 ± 0.34 | 4510 ± 80 | 3.65 ± 0.07 | – | 46.83 ± 0.18 | – | – | – | – | – | – | – | – | – | – | – | – | attraction of males in field trials [11]: do not attract males
CCCCC/C=C\CCCCCCCCC=O [Z10-16:Ald, (Z)-10-hexadecenal] | 980 ± 90 | 0.42 ± 0.04 | highest binding ability | 42.5 ± 1.88 | 970 ± 20 | 0.36 ± 0.01 | highest binding ability | 40.6 ± 1.39 | 760 ± 10 | 210 | 790 ± 30 | 360 ± 10 | 920 ± 50 | 100 | 15400 ± 3180 | 10200 ± 2110 | 1410 ± 20 | 720 ± 10 | 1660 ± 30 | 900 ± 20 | IC50 [9]: 1620 ± 40 nM; Kd [9]: 820 ± 20 nM; IC50 [10]: 2570 ± 550 nM; Kd [10]: 1040 ± 220 nM; binding capacity of mutant compared with CpunPBP5 (in words) ([10]; mutant CpunPBP5-m4 vs wild type): decreased considerably; attraction of males in field trials [11]: do not attract males
